What all share (assay type): biochemical
One data set concerns the target T1, CYP2C9 (Homo sapiens, UniProt P11712).
T1 construct: host or cells: yeast microsomes (Saccharosomes)
In words: CYP2C9 inhibition in Saccharosomes. To be noted: Saccharosomes containing CYP2C9.

The target of a further data set is T2, CYP3A4 (Homo sapiens, UniProt P08684).
T2 construct: host or cells: yeast microsomes (Saccharosomes)
In words: CYP3A4 inhibition in Saccharosomes. Here is the method:
Example 25. IC50 determination for best compound against CYP1A1, CYP1B1 and other CYPs in Saccharosomes. Compounds were serially diluted to six different concentrations with 10% DMSO in a Sero-Well white microplate. The experiment was performed in a similar way as described above in examples 23 and 24.

The next data set deals with T3, CYP2B6 (Homo sapiens, UniProt P20813).
T3 construct: host or cells: yeast microsomes (Saccharosomes)
T3 sequence (P20813 1-491): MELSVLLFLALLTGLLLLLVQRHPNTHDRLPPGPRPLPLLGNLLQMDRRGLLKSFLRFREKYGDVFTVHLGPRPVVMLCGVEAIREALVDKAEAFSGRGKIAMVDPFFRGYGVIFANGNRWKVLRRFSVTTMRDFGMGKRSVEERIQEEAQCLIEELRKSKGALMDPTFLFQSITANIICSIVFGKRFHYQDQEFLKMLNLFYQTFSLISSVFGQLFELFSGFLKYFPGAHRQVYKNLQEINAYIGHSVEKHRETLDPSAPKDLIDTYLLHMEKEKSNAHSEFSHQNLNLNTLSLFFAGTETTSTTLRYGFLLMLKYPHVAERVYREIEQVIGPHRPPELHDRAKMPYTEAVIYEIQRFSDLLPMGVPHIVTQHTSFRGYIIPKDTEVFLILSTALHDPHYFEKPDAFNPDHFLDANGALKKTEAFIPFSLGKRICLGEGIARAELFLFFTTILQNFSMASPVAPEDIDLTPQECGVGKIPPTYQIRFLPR
In words: CYP2B6 inhibition in Saccharosomes. To be noted: Saccharosomes containing CYP2B6.

One may read the inhibition as how much of the control response was suppressed. The low end stands for a weak effect, the high end for a strong effect. The term IC50 denotes the concentration at which inhibition is half-maximal. A higher IC50 goes with lower potency.

T2 sequence (P08684 whole entry): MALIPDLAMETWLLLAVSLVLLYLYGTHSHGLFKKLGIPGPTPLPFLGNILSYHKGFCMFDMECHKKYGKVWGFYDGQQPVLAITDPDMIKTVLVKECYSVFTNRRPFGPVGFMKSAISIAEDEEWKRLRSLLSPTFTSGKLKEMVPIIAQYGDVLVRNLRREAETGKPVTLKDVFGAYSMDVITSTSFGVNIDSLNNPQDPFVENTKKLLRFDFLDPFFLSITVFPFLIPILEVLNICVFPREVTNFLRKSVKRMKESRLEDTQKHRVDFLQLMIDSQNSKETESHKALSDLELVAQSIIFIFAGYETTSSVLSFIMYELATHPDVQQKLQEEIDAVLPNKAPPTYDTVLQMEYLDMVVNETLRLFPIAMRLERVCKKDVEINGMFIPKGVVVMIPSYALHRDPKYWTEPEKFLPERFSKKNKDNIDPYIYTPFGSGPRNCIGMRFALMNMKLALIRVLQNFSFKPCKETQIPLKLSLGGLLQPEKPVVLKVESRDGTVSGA
T1 sequence (P11712 whole entry): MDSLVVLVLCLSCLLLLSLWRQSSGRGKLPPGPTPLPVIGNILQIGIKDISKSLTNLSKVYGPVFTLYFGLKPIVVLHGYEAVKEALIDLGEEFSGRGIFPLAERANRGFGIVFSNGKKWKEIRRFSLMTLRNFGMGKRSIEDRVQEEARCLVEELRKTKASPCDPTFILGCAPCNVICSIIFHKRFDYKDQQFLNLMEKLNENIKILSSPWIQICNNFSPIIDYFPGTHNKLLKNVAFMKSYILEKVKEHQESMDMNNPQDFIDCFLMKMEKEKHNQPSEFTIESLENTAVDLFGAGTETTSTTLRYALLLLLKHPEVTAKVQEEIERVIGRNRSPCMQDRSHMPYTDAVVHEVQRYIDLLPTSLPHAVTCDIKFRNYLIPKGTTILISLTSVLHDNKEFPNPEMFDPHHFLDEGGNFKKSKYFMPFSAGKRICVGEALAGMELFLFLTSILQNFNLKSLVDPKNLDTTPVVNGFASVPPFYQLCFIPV

`COc1c(C(=O)/C=C/c2cccnc2)c(O)c(OC)c2occc12` [Compound 8, 3-(4,7-dimethoxy-6-hydroxybenzofuran-5-yl)-1-(pyridin-3-yl)-3-oxopropene]: the results for the inhibition at 20 µM against CYP2C9 and against CYP2B6 were 62% and 15%, respectively. For the same molecule, at CYP3A4, inhibition was half-maximal at 3 µM (IC50).

Values taken from patent US20210284618A1, “FURANOCHALCONES AS INHIBITORS OF CYP1A1, CYP1A2 AND CYP1B1 FOR CANCER CHEMOPREVENTION” (Council of Scientific & Industrial Research, priority 2016, published 2021).
